# Like-named read-outs stand apart in the source and are kept apart here.
# Tests used:
# [1] = test system: Staphylococcus aureus (MSSA)
# Procedure, shortened: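 Broth microdilution MIC per NCCLS M7-A6 with doubling serial dilutions, in cation-adjusted Mueller-Hinton broth supplemented with 0.625 mM calcium.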
# [2] = In vivo half-life after single i.v. administration, mice; details: female, Swiss CD1, mouse, plasma, iv, 10 mg/kg
# Description: Yet other exemplary in vivo models can be used to characterize the pharmacokinetics and pharmacodynamic parameters of antimicrobial compounds of this disclosure. Some parameters that can be measured include an in vivo half-life of a compound, elimination rate and clearance, volume of distribution, and bioavailability. For example, briefly, compounds can be administered as a single i.v. or oral (p.o.) dose in mice or rats. At various time points (ranging from 1 minute to 72 hours), blood from treated animals is collected and the concentration of lipopeptide derivative in the ex vivo plasma can be quantified by, for example, liquid chromatography with mass spectrometric detection (LC/MS). After quantification, pharmacokinetics parameters can be calculated using methods known in the art, such as a one compartment model with mono-exponential decay and linear regression analysis (see, e.g., Fantin et al., Antimicrob. Agents Chemotherap. 35: 1413. 1991).
# A pharmacokinetic parameter that can be measured, and which aids in determining efficacy, after a single i.v. administration of an antimicrobial lipopeptide derivative of the instant disclosure is the systemic half-life of the compound. Briefly, test compounds were dissolved in a 5% mannitol solution (pH was then adjusted) to a concentration of 1 mg/mL (w/v). A single intravenous injection in the lateral caudal vein of Swiss CD1 mice (5 to 6 weeks old, female) or Sprague Dawley rats (male) was used to administer the lipopeptide derivative at a final dose of 10 mg/kg. At various time points (ranging from about 4 minutes to about 24 hours for mice, and 48 or 72 hours for rats) mice were sacrificed and blood was harvested. The concentration of lipopeptide derivative in ex vivo plasma was quantified using liquid chromatography (LC) with mass spectrometric detection (MS).
# [3] = test system: S. aureus Smith (SAU0017, ATCC 19636); assay: Intraperitoneal murine model of protection against infection (ED50, Table 21); type: in vivo, Staphylococcus aureus; details: Swiss CD1 mice infected i.p., compound i.v.
# Excerpt: A variety of in vivo models may be used to assess the antimicrobial properties of lipopeptide derivative compounds of this disclosure. For example, antimicrobial compounds of the instant disclosure may be tested for efficacy by measuring a compound's ability to protect a mouse against a microbial infection, such as an infection or disease caused by or related to Gram-positive bacteria, including Staphylococcus aureus, Streptococcus pneumoniae, and Enterococcus faecalis. […] A certain period after infection, mice are then individually treated, for example intravenously (i.v.), with a lipopeptide derivative of this disclosure.
# Antimicrobial lipopeptide derivatives of the instant invention were tested for antimicrobial activity against Gram-positive bacteria in an intraperitoneal (i.p.) murine model (i.e., bacteria were injected i.p. and lipopeptide compounds were administered intravenously (i.v.)). Mice were infected with Staphylococcus aureus, Streptococcus pneumoniae, or Enterococcus faecalis, which were prepared as follows: S. aureus Smith (SAU0017, ATCC 19636) were grown in culture overnight on trypticase soy broth, harvested and then resuspended in fresh media containing 5% mucin (Sigma Chemical Co.); S. pneumoniae (SPN 0032, ATCC 10813) were grown overnight on blood agar plates and re-suspended in 0.9% sterile saline; and E. faecalis EFS0040 (clinical isolate) were grown overnight in culture on blood heart infusion broth, washed and resuspended in 0.9% saline and mixed with equal volume of sterile fecal rat extract. Swiss CD1 mice were each infected i.p. with bacteria at the following doses: S. aureus at 10^6 CFU/mouse; S. pneumoniae at 10^2 CFU/mouse; or E. faecalis at 10^7.5 CFU/mouse. […] The ED50 for each compound was calculated using the method of Reed and Meunch (Am. J. Hyg. 27: 493, 1938).
# [4] = test system: Streptococcus pneumoniae SPN0023 (PRSP); assay: Broad spectrum MIC, Table 17/18 column K; type: cell-based; details: condition K of Table 17, in µg/mL
# Description: (§1) The antimicrobial lipopeptide derivatives described herein were tested for antimicrobial activity against Gram-positive bacteria as follows. The minimum inhibitory concentrations (MIC) of the antimicrobial lipopeptide derivatives of the invention were determined using NCCLS guidelines M7-A6 (2003) with a slight modification in that doubling serial dilutions were used to dilute the test compounds. The broth phase microdilution method was used. Isolated colonies of Staphylococcus aureus (MSSA) from an 18-24 hour blood agar plate cultures were used to inoculate cation adjusted Mueller-Hinton broth (CAMHB) supplemented with 0.625 mM calcium. […] A negative control containing media alone and a positive growth control containing bacteria with media alone were also included. MICs were determined after incubating the plates at about 37° C. for 24 hours. […] In Tables 1 to 16, R is the core cyclic peptide of amphomycin or aspartocin, which can be in the form of a β-isomer, an anhydro, a dianhydro, or any combination thereof. […] Furthermore, a person of skill in the art will appreciate that all the pounds, or groups of compounds, derived from the various combinations of and substituents shown in Tables 1 to 16, are disclosed by the present the same extent as if each compound or group of compounds was set forth individually.
# (§2) Antimicrobial lipopeptide derivatives of the instant invention were tested for antimicrobial activity against Gram-positive bacteria in a variety of media conditions. The […] (MIC) of the antimicrobial lipopeptide derivatives were determined as described in Example 376. The various media used are described in Table 17.
# [5] = test system: Enterococcus faecalis EFS0004 (VSE); assay: Broad spectrum MIC, Table 17/18 B, C, D (CAMHB; + 0.625 mM calcium; + calcium and 30% bovine serum); type: cell-based; details: in µg/mL; for MIC, media condition B: condition B: CAMHB; for MIC, media condition C: condition C: + 0.625 mM calcium; for MIC, media condition D: condition D: + calcium and 30% bovine serum
# Description: as §1, §2
# [6] = test system: Staphylococcus epidermidis SEP0375 (MRSE); assay: Broad spectrum MIC, Table 17/18 column I; type: cell-based; details: condition I of Table 17, in µg/mL
# Description: as §1, §2
# [7] = test system: Staphylococcus aureus SAU0031 (VISA); assay: Broad spectrum MIC, Table 17/18 column G; type: cell-based; details: condition G of Table 17, in µg/mL
# Description: as §1, §2
# [8] = test system: Staphylococcus aureus SAU0017 (MSSA); assay: Broad spectrum MIC, Table 17/18 columns E, F (+ 0.625 mM calcium; + calcium and 30% bovine serum); type: cell-based; details: in µg/mL; for MIC, media condition E: condition E: + 0.625 mM calcium; for MIC, media condition F: condition F: + calcium and 30% bovine serum
# Description: as §1, §2
# [9] = test system: Enterococcus faecium EFM0101 (VRE, MDR); assay: Broad spectrum MIC, Table 17/18 column A; type: cell-based; details: condition A of Table 17, in µg/mL
# Description: as §1, §2
# [10] = test system: Streptococcus pyogenes SPY0001 (PenS); assay: Broad spectrum MIC, Table 17/18 column M; type: cell-based; details: condition M of Table 17, in µg/mL
# Description: as §1, §2
# [11] = test system: Staphylococcus aureus SAU0065 (MRSA); assay: Broad spectrum MIC, Table 17/18 column H; type: cell-based; details: condition H of Table 17, in µg/mL
# Description: as §1, §2
# [12] = test system: Streptococcus pneumoniae SPN0002 (PISP); assay: Broad spectrum MIC, Table 17/18 column J; type: cell-based; details: condition J of Table 17, in µg/mL
# Description: as §1, §2
# [13] = test system: Streptococcus pneumoniae SPN0032 (PSSP); assay: Broad spectrum MIC, Table 17/18 column L; type: cell-based; details: condition L of Table 17, in µg/mL
# Description: as §1, §2
"MIC, media condition K [4]","MIC, media condition B [5]","MIC, media condition C [5]","MIC, media condition D [5]","MIC, media condition I [6]","MIC, media condition G [7]","MIC, media condition E [8]","MIC, media condition F [8]","MIC, media condition A [9]","MIC, media condition M [10]",MIC ([1]; 24 h) [µg/mL],"MIC, media condition H [11]","MIC, media condition J [12]","MIC, media condition L [13]",SMILES,"MIC ([1]; S. aureus (MSSA), CAMHB supplemented with 0.625 mM calcium, 24 hours at about 37° C., a range = compound tested multiple times)",half-life [2] [h],"ED50 in Mice, S. aureus (SAU0017) [3] [mg/kg]"
–,–,–,–,–,–,–,–,–,–,–,–,–,–,"CCCCCCCCCCCCCC(=O)NC(CC(=O)O)C(=O)NC1C(=O)N2CCCCC2C(=O)NC(C(C)C(=O)O)C(=O)NC(CC(=O)O)C(=O)NCC(=O)NC(CC(=O)O)C(=O)NCC(=O)NC(C(C)NC(=O)CNC)C(=O)NC(C(C)C)C(=O)N2CCCC2C(=O)NC1C (centres unmarked) [Compound 60, C14-Amphomycin-9-Sar]",60/0.5 μg/mL,4.13,10
0.25,64,4,64,1,4,0.25,16,2,0.5,0.25,1,0.125,0.125,"CCCCCCCCCCCCNC(=O)NC(CC(=O)O)C(=O)NC1C(=O)N2CCCCC2C(=O)NC(C(C)C(=O)O)C(=O)NC(CC(=O)O)C(=O)NCC(=O)NC(CC(=O)O)C(=O)NCC(=O)NC(C(C)NC(=O)CCN)C(=O)NC(C(C)C)C(=O)N2CCCC2C(=O)NC1C (stereo not drawn) [Compound 97, CH3—(CH2)11—NH—C(═O)-Amphomycin-9-(β-Ala)]",–,–,–
0.25,32,4,>64,1,4,0.5,16,2,0.5,0.5,1,0.125,0.5,"CCCCCCCCCCCCNC(=O)NC(CC(=O)O)C(=O)NC1C(=O)N2CCCCC2C(=O)NC(C(C)C(=O)O)C(=O)NC(CC(=O)O)C(=O)NCC(=O)NC(CC(=O)O)C(=O)NCC(=O)NC(C(C)NC(=O)CNC)C(=O)NC(C(C)C)C(=O)N2CCCC2C(=O)NC1C (centres unmarked) [Compound 98, CH3—(CH2)11—NH—C(═O)-Amphomycin-9-Sar]",–,–,–
–,–,–,–,–,–,–,–,–,–,–,–,–,–,"CCCCCCCCCCCCC(=O)NC(CC(=O)O)C(=O)NC1C(=O)N2CCCCC2C(=O)NC(C(C)C(=O)O)C(=O)NC(CC(=O)O)C(=O)NCC(=O)NC(CC(=O)O)C(=O)NCC(=O)NC(C(C)NC(=O)CNC(=O)[C@@H](N)CCCCN)C(=O)NC(C(C)C)C(=O)N2CCCC2C(=O)NC1C (some centres unmarked) [Compound 128, C13-Amphomycin-9-Gly-Lys]",–,0.198,6.2
0.25,16,8,>64,4,16,4,>64,8,2,4,4,0.5,2,"CCCCCCCCCCCCCCC(=O)NC(CC(=O)O)C(=O)NC1C(=O)N2CCCCC2C(=O)NC(C(C)C(=O)O)C(=O)NC(CC(=O)O)C(=O)NCC(=O)NC(CC(=O)O)C(=O)NCC(=O)NC(C(C)NC(=O)[C@@H]2CCCN2)C(=O)NC(C(C)C)C(=O)N2CCCC2C(=O)NC1C (some centres unmarked) [Compound 160, C15-Amphomycin-9-Pro]",–,–,–
1,8,4,32,2,4,2,8,4,2,2,2,0.5,1,"CCCCCCCCCCCCNC(=O)NC(CC(=O)O)C(=O)NC1C(=O)N2CCCCC2C(=O)NC(C(C)C(=O)O)C(=O)NC(CC(=O)O)C(=O)NCC(=O)NC(CC(=O)O)C(=O)NCC(=O)NC(C(C)N)C(=O)NC(C(C)C)C(=O)N2CCCC2C(=O)NC1C (centres unmarked) [Compound 251, CH3—(CH2)11—NH—C(═O)-Amphomycin]",–,–,–

SMILES,"MIC, media condition K [4]","MIC, media condition B [5]","MIC, media condition C [5]","MIC, media condition D [5]","MIC, media condition I [6]","MIC, media condition G [7]","MIC, media condition E [8]","MIC, media condition F [8]","MIC, media condition A [9]","MIC, media condition M [10]",MIC ([1]; 24 h) [µg/mL],"MIC, media condition H [11]","MIC, media condition J [12]","MIC, media condition L [13]","MIC ([1]; S. aureus (MSSA), CAMHB supplemented with 0.625 mM calcium, 24 hours at about 37° C., a range = compound tested multiple times)",half-life [2] [h],"ED50 in Mice, S. aureus (SAU0017) [3] [mg/kg]"
"CCCCCCCCCCCCCCNC(=O)NC(CC(=O)O)C(=O)NC1C(=O)N2CCCCC2C(=O)NC(C(C)C(=O)O)C(=O)NC(CC(=O)O)C(=O)NCC(=O)NC(CC(=O)O)C(=O)NCC(=O)NC(C(C)N)C(=O)NC(C(C)C)C(=O)N2CCCC2C(=O)NC1C (centres unmarked) [Compound 253, CH3—(CH2)13—NH—C(═O)-Amphomycin]",0.125,1,0.5-1,16-32,1,2-4,0.5-1,2-4,0.5-1,0.25,0.5 to 1,1-2,0.125,0.125,–,5.15,4.8

# Reference: patent US7868135B2, “Compositions of lipopeptide antibiotic derivatives and methods of use thereof” (priority 2003, dated 2011)
